Experimental findings from PubChem BioAssay AID651992 (The Scripps Research Institute Molecular Screening Center, 2013) are described below.

For the assay, the system named is CFBE41o- DeltaF508-CFTR YFP halide quenching kinetics. In words: PubChem AID 651992. The following applies: at 40 µM (top of the series).

As to `COc1ccc(/C=C/C=C2C(=O)NC(=O)NC2=O)cc1`, the YFP fluorescence ratio, lower = correction was 1.
